From patent publication US10028931B2, “Synergistic compositions for treating microbial infections” (UNIVERSITY OF ROCHESTER, priority 2014, dated 2018)
Converted amounts (≈) assume the structure as drawn. Read-outs that look alike come from different tables or passages of the source.

Experiments:
[1] = test system: Staphylococcus aureus strain UAMS-1; assay: Antimicrobial susceptibility testing (MIC, broth microdilution); format: cell-based; details: S. aureus UAMS-1, Mueller Hinton broth, 37° C.
Procedure: The RNase P inhibitors described herein were tested for antimicrobial activity toward Staphylococcus aureus strain UAMS-1. Individual wells of a 96-well microtiter plate were inoculated with ˜1×10^5 colony-forming units (CFU) of the indicated organism, containing two-fold increasing concentrations (from 0 to 256 μg mL^−1) of the indicated antibiotic or putative RnpA inhibitor, and incubated at 37° C. for 18 hours in Mueller Hinton broth. The MIC was defined as the lowest concentration of antibiotic in which there was no visible bacterial growth in the wells. Minimum bactericidal concentration testing was performed by enumerating the bacterial cells in each of the wells containing treatments at and above the MIC.

[2] = molecular target: T1, S. aureus RNase P (RnpA+rnpB) (Staphylococcus aureus, UniProt P0A0H5); assay: RNase P activity assay (precursor tRNA processing); format: biochemical; details: gel densitometry
T1 sequence (P0A0H5 1-117): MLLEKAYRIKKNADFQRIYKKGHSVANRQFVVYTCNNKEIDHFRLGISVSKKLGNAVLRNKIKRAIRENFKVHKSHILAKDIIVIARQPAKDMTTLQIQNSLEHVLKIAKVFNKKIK
Procedure: The RNase P inhibitors described herein were tested for activity toward RNase P. S. aureus RNase P activity assays were performed in low salt buffer (50 mM Tris-HCl pH 8.0, 5 mM MgCl2) or in high salt buffer (50 mM Tris-HCl pH 8.0, 100 mM MgCl2, 800 mM NH4Cl). For all reactions, ptRNATyr, tRNATyr, or rnpB RNA species were first denatured by heating to 95° C. for 3 minutes, and then slowly cooling the mixtures to room temperature. RNase P was reconstituted by mixing an equal molar ratio of RnpB and RnpA for 15 min at 37° C. Precursor tRNA processing reactions (20 μL) were performed by mixing 1.25 pmol RNase P (RnpA+rnpB), RnpA, or rnpB with an equal volume of 2× low salt buffer or 2× high salt buffer and 10 pmol ptRNATyr. Mixtures were incubated for 15 min at 37° C. Reactions were stopped by adding 20 μL 2×RNA loading dye (95% formamide, 0.025% SDS, 0.025% bromophenol blue, 0.025% xylene cyanol FF, 0.5 mM EDTA), and 30 μL of each sample was electrophoresed in a 7 M urea/8% polyacrylamide gel and was then stained with ethidium bromide (0.5 μg/ml). Where indicated, reactions were repeated in the presence of the indicated amount of putative RnpA inhibitors or dimethyl sulfoxide (DMSO). A FluorChem 5500 imaging system was used to visualize the RNA, and the relative abundance of the mature tRNATyr band in the positive control (RNase P+DMSO) or in samples containing test compounds was measured using Image J densitometry software (NIH). The percent RNase P activity was then calculated using the following calculation: (test compound tRNATyr signal/positive control tRNATyr signal)*100.

S. aureus strain UAMS-1 = assay: Fractional Inhibitory Concentration testing with mupirocin; format: cell-based; details: combined with mupirocin, S. aureus UAMS-1, Mueller Hinton broth, 18 hours; synergistic FIC≤0.5
Procedure: The RNase P inhibitors described herein were tested for Fractional Inhibitory Concentration (FIC) in the presence of mupirocin. FIC testing was performed to determine the combined effects of mupirocin and the RnpA inhibitors as described herein. Individual wells of a 96-well microtiter plate were inoculated with 1×10^5 CFU of S. aureus strain UAMS-1 in a Mueller Hinton broth. Each row of the plate contained increasing concentrations of RNPA1000 or RNPA2000 (two-fold increments; 0, 0.004, 0.008, 0.016, 0.03, 0.06, 0.125, 0.25, 0.5, 1, 2, or 4×MIC), whereas each column contained increasing concentrations of the indicated antibiotic (two-fold increments; 0, 0.06, 0.125, 0.25, 0.5, 1, 2, or 4×MIC). Plates were incubated for 18 hours at 37° C., and growth was detected by the unaided eye. The FIC was determined using the following formula: (MIC of Drug A in Combination/MIC of Drug A Alone)+(MIC of Drug B in Combination/MIC of Drug B Alone)=FIC. A synergistic interaction was defined as an FIC value≤0.5, no interaction as an FIC of 0.5-4, or an antagonistic interaction FIC>4.

RnpA = molecular target: T2, RnpA (Staphylococcus aureus, UniProt P0A0H5); assay: RnpA mRNA degradation activity assay; format: biochemical
T2 sequence (P0A0H5 1-117): T1 sequence (P0A0H5 1-117)
Procedure: The RNase P inhibitors described herein were tested for activity toward RnpA mRNA degradation activity. Either 1 μg of total S. aureus RNA or 1 pmol of in vitro synthesized spa mRNA was incubated with 20 pmol RnpA at 37° C. for 15 to 30 min in a reaction buffer (50 mM Tris-HCl pH 8.0, 2 mM NaCl, 2 mM MgCl2) in the absence or presence of the indicated compound. Reactions were stopped by adding an equal volume of 2×RNA loading dye (95% formamide, 0.025% SDS, 0.025% bromophenol blue, 0.025% xylene cyanol FF, 0.5 mM EDTA), run on a denaturing 1.0% agarose-0.66 M formaldehyde gel and stained with ethidium bromide. RNA substrates and corresponding degradation products were visualized using a FluorChem 5500 system (Alpha Innotech; San Leandro, Calif.). The inhibitory effects of the test compounds were measured using Image J densitometry software (National Institutes of Health; Bethesda, Md.) to quantify the signal intensity of the RNA band(s) in the negative control (RNA alone), positive control (RnpA+RNA+DMSO), and experimental samples (RnpA+RNA+test compound). The percent enzyme inhibition of test compounds was calculated using the following equation: Percent inhibition=[(experimental signal-positive control)/(negative control signal-positive control signal)]*100.

[3] = Staphylococcus aureus, UAMS1, 18 h, read-out: MIC
[4] = ptRNATyr processing, read-out: RNase P IC50
[5] = RnpA mRNA degradation, gel densitometry, read-out: RnpA IC50
[6] = RNase P IC50, ptRNATyr processing

Structure (SMILES)	MIC [1, 3]	IC50 [2, 4]	FIC with Mupirocin (S. aureus strain UAMS-1)	IC50 (RnpA; [5])	further results
CC(C)c1ccc(OCC(=O)NNC(=S)NC(=O)c2ccno2)cc1 [MC-190037]	32 µg/mL (≈ 88.3 µM)	> 500 µM	0.625		
CC(C)c1ccc(OCC(=O)NNC(=S)NC(=O)c2cc3ccccc3n2C)cc1 [MC-190056]	64 µg/mL (≈ 151 µM)		0.49	240 µM	
CC(C)c1ccc(OCC(=O)NNC(=S)NC(=O)c2cc3cc(F)ccc3[nH]2)cc1 [MC-190062]	64 µg/mL (≈ 149 µM)		0.56		
CCCOc1ccc(OCC(=O)NNC(=S)NC(=O)c2ccco2)cc1 [MC-190072]	128 µg/mL (≈ 339 µM)		0.625		
Cc1ccc(C(=O)NNC(=S)NC(=O)c2ccco2)cc1 [MC-190073]			0.75		MIC ([1]; 18 hours): 64 µg/mL (≈ 211 µM)
O=C(/C=C/c1ccccc1)NNC(=S)NC(=O)c1ccco1 [MC-190074]	64 µg/mL (≈ 203 µM)		0.625		
CC(C)c1ccc(OCC(=O)NNC(=S)NC(=O)c2ccc3ccccc3n2)cc1 [MC-190077]	> 128 µg/mL		0.53		
CC(C)c1ccc(/C=C/C(=O)NNC(=S)NC(=O)c2ccco2)cc1 [MC-190078]	64 µg/mL (≈ 179 µM)		0.625		
O=C(COc1ccccc1)NNC(=S)NC(=O)c1ccco1 [MC-190079]	> 128 µg/mL		0.75		
CC(C)c1ccc(OCC(=O)NNC(=S)NC(=O)c2cccc(-c3ccccc3)n2)cc1 [MC-190081]	> 128 µg/mL		0.56		
Cc1cc(C)cc(OCC(=O)NNC(=S)NC(=O)C2CC2)c1 [ST5523339]	16 µg/mL (≈ 49.8 µM)		1	> 500 µM	
CC(C)c1ccc(OCC(=O)NNC(=S)NC(=O)c2ccco2)c(Br)c1 [ST5524693]	8 µg/mL (≈ 18.2 µM)	350 µM	0.49		
COc1ccccc1C(=O)NNC(=S)NC(=O)c1ccco1 [ST5525332]					MIC ([1]; Staphylococcus aureus, UAMS1, 18 hours, read-out: MIC): 8 µg/mL (≈ 25.1 µM); IC50 (RnpA): > 500 µM; IC50 [2, 6]: > 500 µM
CC(C)C(=O)Nc1ccc(C(=O)NNC(=S)NC(=O)c2ccco2)cc1 [ST5525955]	> 128 µg/mL	145 µM		> 500 µM	
CCCCC(=O)Nc1ccc(C(=O)NNC(=S)NC(=O)c2ccco2)cc1 [ST5526667]	> 128 µg/mL	90 µM		80 µM	
O=C(CNC(=O)C1CCCCC1)NNC(=S)NC(=O)c1ccco1 [ST5526682]	> 128 µg/mL	200 µM		> 500 µM	

Structure (SMILES)	MIC [1, 3]	IC50 [2, 4]	FIC with Mupirocin (S. aureus strain UAMS-1)	IC50 (RnpA; [5])	further results
CCOc1ccc(C(=O)NC(=S)NNC(=O)COc2ccc(C(C)CC)cc2)cc1 (stereo not shown) [ST5528171]	64 µg/mL (≈ 149 µM)	280 µM		> 500 µM	
CCCCCCCC(=O)NC(=S)NNC(=O)COc1ccc(C(C)CC)cc1 (stereo not shown) [ST5528863]	> 128 µg/mL	490 µM		> 500 µM	
CC(C)COc1ccc(C(=O)NNC(=S)NC(=O)c2ccco2)cc1 [ST5529685]	64 µg/mL (≈ 177 µM)	> 500 µM		> 500 µM	
CC(C)CNC(=S)NNC(=O)c1ccc(COc2ccc(C(C)(C)C)cc2)o1 [ST5607017]	> 128 µg/mL	> 500 µM		70 µM	
Cc1ccc(OCc2ccc(C(=O)NNC(=S)NCC(C)C)o2)c(C)c1 [ST5607269]	> 128 µg/mL	> 500 µM		150 µM	
CCc1ccc(OCc2ccc(C(=O)NNC(=S)NCC(C)C)o2)cc1 [ST5607293]	> 128 µg/mL	> 500 µM		> 500 µM	
COc1cccc(OC)c1C(=O)NC(=S)NNC(=O)c1ccco1 [ST5638707]	128 µg/mL (≈ 366 µM)	> 500 µM		> 500 µM	
Cc1ccccc1C(=O)NNC(=S)NC(=O)c1ccco1 [ST5638722]	64 µg/mL (≈ 211 µM)	430 µM		> 500 µM	
O=C(NC(=S)NNC(=O)c1ccc(O)cc1O)c1ccco1 [ST5640720]	16 µg/mL (≈ 49.8 µM)	> 500 µM		> 500 µM	
O=C(NNC(=S)NC(=O)c1ccco1)c1cnccn1 [ST5641784]	32 µg/mL (≈ 110 µM)	> 500 µM		> 500 µM	
O=C(Cc1ccc(Cl)cc1)NNC(=S)NC(=O)c1ccco1 [ST5642600]	16 µg/mL (≈ 47.4 µM)	> 500 µM		> 500 µM	
Cc1ccc(C(=O)NNC(=S)NC(=O)c2ccco2)cc1 [ST5682777]		70 µM		> 500 µM	MIC ([1]; 18 hours): 16 µg/mL (≈ 52.7 µM)
COc1ccccc1OCC(=O)NNC(=S)NC(=O)c1ccco1 [ST5682778]	> 128 µg/mL	> 500 µM		> 500 µM	
O=C(COc1ccc(Cl)cc1Cl)NNC(=S)NC(=O)c1ccco1 [ST5682846]	4 µg/mL (≈ 10.3 µM)			> 500 µM	IC50 [2, 6]: 80 µM
O=C(NC(=S)NNC(=O)c1ccccc1O)c1ccco1 [ST5703881]		> 500 µM		> 500 µM	MIC ([1]; 18 hours): 16 µg/mL (≈ 52.4 µM)
O=C(NC(=S)NNC(=O)c1ccco1)c1ccc(F)c(F)c1 [ST5704832]	> 128 µg/mL	> 500 µM		> 500 µM	
